Active and inactive are the calls of the source. The rule behind the calls is not given here. Residues, ends and D or L forms follow the SMILES beside them. *: point of attachment. X1 = COc1nc(CCCN*)cnc1NS(=O)(=O)c1ccc(NC(=O)CCc2cccs2)cc1; Biotin = O=C1N[C@H]2[C@H](CS[C@H]2CCCCC(=O)*)N1; Ahx = NCCCCCC(=O)O
These compounds were tested against T1, Mixed lineage kinase domain-like protein (Homo sapiens) (UniProt Q8NB16) (assay: Competitive binding affinity to Myc-tagged MLKL (unknown origin) transfected in human HeLa cells at 20 nM by Western blot analysis in presence of biotin-labeled positive probe). Conditions: not given.
T1 sequence (whole entry): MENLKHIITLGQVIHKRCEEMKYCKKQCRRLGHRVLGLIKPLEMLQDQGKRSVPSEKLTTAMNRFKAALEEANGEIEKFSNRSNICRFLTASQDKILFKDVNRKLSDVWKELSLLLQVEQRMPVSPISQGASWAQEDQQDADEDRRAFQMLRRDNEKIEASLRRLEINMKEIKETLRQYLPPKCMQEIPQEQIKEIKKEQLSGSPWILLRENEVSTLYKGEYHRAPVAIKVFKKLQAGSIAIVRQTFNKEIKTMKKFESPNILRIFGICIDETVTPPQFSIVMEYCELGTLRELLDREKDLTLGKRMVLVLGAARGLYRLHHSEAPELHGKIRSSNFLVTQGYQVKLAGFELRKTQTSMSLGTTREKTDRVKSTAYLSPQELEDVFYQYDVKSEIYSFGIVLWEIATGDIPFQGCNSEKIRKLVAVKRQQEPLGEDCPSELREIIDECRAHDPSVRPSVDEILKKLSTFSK
Format: cell-based

Row | SMILES | Activity
1 | COc1nccnc1NS(=O)(=O)c1ccc(NC(=O)/C=C/c2ccc(Br)s2)cc1 | inactive
2 | COc1nccnc1NS(=O)(=O)c1ccc(NC(=O)/C=C/c2ccc([N+](=O)[O-])s2)cc1 | Active
3 | C#CCOc1nccnc1NS(=O)(=O)c1ccc(NC(=O)/C=C/c2sccc2[N+](=O)[O-])cc1 | inactive

What follows are compounds tested on HT-29 (assay: Cytoprotective activity against TNF-alpha, smac mimetic, z-VAD-induced necrosis in human HT-29 cells assessed as cell survival by measuring cellular ATP level at 4 uM after 24 hrs by Cell Titer-Glo assay relative to control). Conditions: not given.
Format: functional

Row | SMILES | Activity
4 | COc1nc(CCCNC(=O)CC[C@H](NC(=O)[C@@H]2CCCN2C(=O)[C@@H]2CCCN2C(=O)[C@@H]2CCCN2C(=O)[C@@H]2CCCN2C(=O)[C@@H]2CCCN2C(=O)[C@@H]2CCCN2C(=O)[C@@H]2CCCN2C(=O)[C@@H]2CCCN2C(=O)[C@@H]2CCCN2C(=O)CCCCCNC(=O)CCCC[C@@H]2SC[C@@H]3NC(=O)N[C@@H]32)C(N)=O)cnc1NS(=O)(=O)c1ccc(NC(=O)CCc2cccs2)cc1 ({Biotin-Ahx}-PPPPPPPPPE(X1)-NH2) | inactive
5 | COc1nc(CCCNC(=O)CC[C@H](NC(=O)[C@@H]2CCCN2C(=O)[C@@H]2CCCN2C(=O)[C@@H]2CCCN2C(=O)[C@@H]2CCCN2C(=O)C2CCCN2C(=O)[C@@H]2CCCN2C(=O)[C@@H]2CCCN2C(=O)[C@@H]2CCCN2C(=O)[C@@H]2CCCN2C(=O)CCCCCNC(=O)CCCC[C@@H]2SC[C@@H]3NC(=O)N[C@@H]32)C(N)=O)cnc1NS(=O)(=O)c1ccc(NC(=O)/C=C/c2ccc([N+](=O)[O-])s2)cc1 (single isomer, unassigned) | Active

Same assay, conditions: HT-29, 24 h, read-out: Survival

Row | SMILES | viability at 4 µM
6 | O=C(/C=C/c1ccc([N+](=O)[O-])s1)Nc1ccc(S(=O)(=O)Nc2nccnc2OCc2ccccc2)cc1 | 92.2%
7 | COc1nccnc1NS(=O)(=O)c1ccc(NC(=O)/C=C/c2ccc(Br)s2)cc1 | 31.8%
8 | COc1nccnc1NS(=O)(=O)c1ccc(NC(=O)CCc2cccs2)cc1 | 30.4%
9 | COc1nccnc1NS(=O)(=O)c1ccc(NC(=O)/C=C/c2cccc([N+](=O)[O-])c2)cc1 | 32%
10 | Cc1cc(C)nc(NS(=O)(=O)c2ccc(NC(=O)/C=C/c3ccc([N+](=O)[O-])s3)cc2)n1 | 79.2%
11 | COc1nccnc1NS(=O)(=O)c1ccc(NC(=O)/C=C/c2ccc([N+](=O)[O-])cc2)cc1 | 32.2%
12 | COc1nc(Br)cnc1NS(=O)(=O)c1ccc(NC(=O)/C=C/c2ccc([N+](=O)[O-])s2)cc1 | 90.8%
13 | COc1nccnc1NS(=O)(=O)c1ccc(NC(=O)/C=C/c2cccs2)cc1 | 29.5%
14 | COc1nccnc1NS(=O)(=O)c1ccc(NC(=O)/C=C/c2ccc([N+](=O)[O-])s2)cc1 | 80.3%
15 | C#CCOc1nccnc1NS(=O)(=O)c1ccc(NC(=O)/C=C/c2sccc2[N+](=O)[O-])cc1 | 19.8%
16 | C#CCOc1nccnc1NS(=O)(=O)c1ccc(NC(=O)/C=C/c2ccc([N+](=O)[O-])s2)cc1 | 90.8%
17 | O=C(/C=C/c1ccc([N+](=O)[O-])s1)Nc1ccc(S(=O)(=O)Nc2nccnc2O)cc1 | 90.4%
18 | COc1nccnc1NS(=O)(=O)c1ccc(NC(=O)CCc2ccc([N+](=O)[O-])s2)cc1 | 29.9%

Reference: ChEMBL document CHEMBL3217478, “Necrosulfonamide inhibits necroptosis by selectively targeting the mixed lineage kinase domain-like protein” (2014)
